# “And” between values parts separate entries of the source, which are not always exact repeats. Equal entries are not always repeated.
# Assays:
# [1] = system: patients with mild to moderate hypertension; experiment: Example 19 clinical study: eplerenone versus placebo co-administered with a calcium-channel blocker; assay type: in vivo, human
# Description: This multicenter, randomized, double-blind, placebo-controlled, placebo run-in, parallel group trial involving a minimum of 120 randomized patients with hypertension (seated diastolic blood pressure [seDBP] ≧95 mmHg and <110 mmHg and seated systolic BP [seSBP] <180 mmHg while taking a CCB) will consist of a one- to two-week pretreatment screening period followed by a two- to four-week single-blind placebo run-in period and an 8-week double-blind treatment period. Eligible patients will be patients currently receiving a CCB as part of their antihypertensive medication. […] The dose will not be changed for patients with adequate BP control. […] If the dose has been increased at Week 2, the patient will be reassessed at Week 6. […] If BP is uncontrolled at Week 6 and the dose has been increased at Week 2 or Week 4, the patient must be withdrawn from the study. If symptomatic hypotension (i.e., lightheadedness, dizziness, or syncope associated with low BP) occurs at any time during the study, or if DBP is ≧110 mmHg or SBP is ≧180 mmHg at any time during the trial, the patient must be withdrawn. Patients will receive study medication for a total of 8 weeks.
# Patients will return to the clinic for evaluations at Weeks 0 (baseline), 2, 4, 6, 8, and 9. Heart rate, BP, adverse events and concomitant medication will be assessed at each visit. Hematology and biochemistry evaluations and urinalysis for safety will be at Weeks 0, 8, and 9. Serum potassium levels will be determined at Weeks 0 (baseline), 2, 4, 6, 8, and 9. Plasma renin, serum aldosterone, and plasma cortisol will be determined at Weeks 0 and 8. A 12-lead electrocardiogram and physical examination will be done at screening and at Week 9.
# Eligible patients will be either currently receiving a CCB alone, or receiving a CCB as part of their antihypertensive medication. […] The dose will not be changed for patients with adequate BP control. […] If the dose has been increased at Week 2, the patient will be reassessed at Week 6. The dose of study medication will not be changed for patients with adequate BP control. […] If BP is uncontrolled at Week 6 and the dose has been increased at Week 2 or Week 4, the patient must be withdrawn from the study. The dose of study medication will not be changed for patients with adequate BP control. If symptomatic hypotension (i.e., lightheadedness, dizziness, or syncope associated with low BP) occurs at any time during the study, or if DBP is ≧110 mmHg or SBP is ≧180 mmHg at any time during the study, the patient must be withdrawn. Patients will receive study medication for a total of eight weeks.
# Patients will return to the clinic for evaluations at Weeks 0, 2, 4, 6, 8, and 9. Heart rate, BP, adverse events and concomitant medication will be assessed at each visit. Hematology and biochemistry evaluations and urinalysis for safety will be at Weeks 0, 8, and 9. Serum potassium levels will be determined at Weeks 0, 2, 4, 6, 8, and 9. Plasma renin, serum aldosterone, and plasma cortisol will be determined at Weeks 0 and 8. A 12-lead electrocardiogram and physical examination will be done at screening and at Week 9.
# The treatment difference will be evaluated based on the mean change from baseline in seated trough cuff DBP at Week 8.
# [2] = X-ray powder diffraction, Form H content of dried solids; assay type: physicochemical; details: methyl ethyl ketone solvate dried at 100° C.
# Description: For the Siemens D500 powder diffractometer, the raw data was measured for 2q values from 2 to 50, with steps of 0.020 and step periods of two seconds. For the Inel Multipurpose Diffractometer, samples were placed in an aluminum sample holder and raw data was collected for 30 minutes at all two theta values simultaneously.
# The weight percent of the diepoxide or 11,12-epoxide in each sample is given in Tables X-6A and X-6B, respectively. A micro-flea magnetic stirrer was added to each scintillation vial along with 1 mL of methyl ethyl ketone. The vials were loosely capped and the solid dissolved by heating to reflux on a hot plate with magnetic stirring. Once the solids were dissolved, the solutions were allowed to cool to room temperature on the hot plate. Magnetic stirring was maintained during the cooling period. After the solutions reached room temperature, the solids were collected by vacuum filtration and immediately analyzed by X-ray powder diffraction (XPRD). The solids were then placed in a 100° C. oven and dried for one hour at ambient pressure. The dried solids were analyzed by XPRD for Form H content by monitoring the area of the Form H diffraction peak at about 12.1 degrees two theta. All XPRD diffraction patterns were recorded using an Inel Multipurpose Diffractometer.
# The area for the Form H diffraction peak at about 12.1 degrees two theta and the estimated Form H content for each sample are given in Table X-6C below.
# [3] = as above; assay type: physicochemical; details: for Form H Peak Area 12° Two Theta Peak / Estimated Weight Percent of Form H: methyl ethyl ketone solvate dried at 100° C.
# [4] = Differential scanning calorimetry, melting/decomposition; assay type: physicochemical; details: cooling rate (0) 1.5° C./min.; endpoint (0) 25° C.; 100.8% eplerenone seeded with Form H; analyzed by DSC
# Text: Melting/decomposition ranges were defined from the extrapolated onset to the maximum of the melting/decomposition endotherm. […] One or more endothermal events at lower temperatures were associated with enthalpy changes that occurred as solvent was lost from the solvate crystal lattice. The highest temperature endotherm or endotherms were associated with the melting/decomposition of Form L or Form H eplerenone.
# [5] = system: rats with ligated left anterior descending coronary artery; experiment: Assay D: Myocardial Infarction Rat Model; assay type: in vivo; details: combination of calcium channel blocker and epoxymexrenone versus either component alone, after six weeks
# Description: Assay “D”: Myocardial Infarction Rat Model: Male rats are anesthetized and the heart is exteriorized following a left sided thoracotomy. The left anterior descending coronary artery is ligated with a suture. The thorax is closed and the animal recovers. Sham animals have the suture passed through without ligation. One week prior to the surgery, animals to undergo infarction are divided into separate groups and drug treatment is begun. Groups of animals are administered vehicle, calcium channel blocker alone, epoxymexrenone alone, and combinations of calcium channel blocker and epoxymexrenone, at various doses, as follow: [table] After six weeks, systolic and diastolic blood pressure, left ventricular end diastolic pressure, left ventricular dP/dt, and heart rate are evaluated. The hearts are removed, weighed, measured and fixed in formalin. Collagen content of heart sections are evaluated using computerized imaged image analysis of picrosirius stained sections.
# [6] = system: rats made hypertensive by renal artery clip; experiment: Assay C: Hypertensive Rat Model; assay type: in vivo; details: combination of calcium channel blocker and epoxymexrenone versus either component alone, after 12 to 24 weeks
# Description: Assay “C”: Hypertensive Rat Model Male rats are made hypertensive by placing a silver clip with an aperture of 240 microns on the left renal artery, leaving the contralateral kidney untouched. Sham controls undergo the same procedure but without attachment of the clip. One week prior to the surgery, animals to be made hypertensive are divided into separate groups and drug treatment is begun. Groups of animals are administered vehicle, calcium channel blocker alone, epoxymexrenone alone, and combinations of calcium channel blocker and epoxymexrenone at various doses: [table] After 12 to 24 weeks, systolic and diastolic blood pressure, left ventricular end diastolic pressure, left ventricular dP/dt, and heart rate are evaluated. The hearts are removed, weighed, measured and fixed in formalin. Collagen content of heart sections are evaluated using computerized image analysis of picrosirius stained sections.
# [7] = CCB and eplerenone compared to CCB and placebo
# [8] = eplerenone plus CCB versus CCB plus placebo, eight weeks, hypertensive patients
# [9] = 0% 11,12-epoxide in starting eplerenone mixture
# [10] = 1% 11,12-epoxide in starting eplerenone mixture
# [11] = 5% 11,12-epoxide in starting eplerenone mixture
# [12] = 5% diepoxide in starting eplerenone mixture
# [13] = 3% diepoxide in starting eplerenone mixture
# [14] = 10% 11,12-epoxide in starting eplerenone mixture
smiles,measurement,setting,value
"COC(=O)[C@@H]1CC2=CC(=O)CC[C@]2(C)C23O[C@@H]2C[C@@]2(C)[C@@H](CC[C@@]24CCC(=O)O4)[C@H]13 (stereo partly drawn) [eplerenone, Pregn-4-ene-7,21-dicarboxylic acid, 9,11-epoxy-17-hydroxy-3-oxo-,γ-lactone, methyl ester, (7α,11α,17β)-]",Active renin levels,[1]; [7],greater increase
same,aldosterone levels,[1]; [7],greater increase
same,serious adverse events,[1]; eplerenone added to CCB therapy,no serious adverse events
same,change in mean diastolic blood pressure,[1]; [8],"greater for the dual therapy group, compared to monotherapy, but this difference did not reach statistical significance"
same,change in systolic blood pressure,[1]; [8],significant reduction
same,Estimated Weight Percent of Form H,[2]; [9],None Detected
same,Form H Peak Area 12° Two Theta Peak,[2]; [9],None Detected
same,Estimated Weight Percent of Form H,[2]; [10],None Detected
same,Estimated Weight Percent of Form H,[2]; [11],None Detected
same,Form H Peak Area 12° Two Theta Peak,[2]; [11],None Detected
same,Estimated Weight Percent of Form H,[2]; [12],30%
same,Form H Peak Area 12° Two Theta Peak,[3]; [10],None Detected
same,Estimated Weight Percent of Form H,[3]; [13],10%
same,Form H Peak Area 12° Two Theta Peak,[3]; [13],1168
same,Form H Peak Area 12° Two Theta Peak,[3]; [12],4175
same,Estimated Weight Percent of Form H,[3]; [14],10-15%
same,Form H Peak Area 12° Two Theta Peak,[3]; [14],1541
same,Weight Percent Form H,"[3]; Cooling Rate High, End Point High, Impurity Level High, High Fluid Bed drying",25%
same,Weight Percent Form H,"[3]; Cooling Rate High, End Point High, Impurity Level High, Low Fluid Bed drying",4.7%
same,Weight Percent Form H,"[3]; Cooling Rate High, End Point High, Impurity Level High, Vacuum Oven drying",29%
same,Weight Percent Form H,"[3]; Cooling Rate Low, End Point Low, Impurity Level Low, Low Fluid Bed drying",5.5%
same,Weight Percent Form H (XPRD),"[3]; cooling rate (0) 1.5° C./min., endpoint (0) 25° C., 100.8% eplerenone seeded with Form H, analyzed by XPRD",77 Weight Percent
same,Weight Percent Form H (XPRD),"[3]; cooling rate (0) 1.5° C./min., endpoint (0) 25° C., impurity level (0) = 100.8% purity eplerenone starting material as printed, three runs",5 Weight Percent and <3% Weight Percent
same,Weight Percent Form H (XPRD),"[3]; cooling rate (+) 3° C./min., endpoint (+) 45° C., impurity level (+) 89.3% purity eplerenone starting material",29 Weight Percent
same,Weight Percent Form H (XPRD),"[3]; cooling rate (+) 3° C./min., endpoint (−) 5° C., impurity level (+) 89.3% purity eplerenone starting material",9 Weight Percent
same,Weight Percent Form H (XPRD),"[3]; cooling rate (−) 0.1° C./min., endpoint (+) 45° C., impurity level (+) 89.3% purity eplerenone starting material",31 Weight Percent
same,Weight Percent Form H (DSC),[4],100 Weight Percent
same,cardiac performance,[5],improvements in cardiac performance
same,cardiac performance,[6],improvements in cardiac performance

# Reference: patent publication US20030220310A1, “Epoxy-steroidal aldosterone antagonist and calcium channel blocker combination therapy for treatment of congestive heart failure” (priority 2003, published 2003)
